In data set [1] the test system is Syrian hamsters. The experiment in a line: Test Example 4: liver TG release inhibition test (Triton WR 1339). The note with it: Triton WR 1339, plasma TG release velocity over 2 h, fasted Syrian hamsters. The format is in vivo. The method, then: Liver TG Release Inhibition Test
Syrian hamsters (9 to 11 weeks of age) which were fasted for one day were used in the test. Blood was collected previously from orbital venous plexus, and a sample was forced to be administered orally to the hamsters at a dose of 30, 100 or 300 mg/2 mL/kg, and the same amount of vehicle was administered to the control group. Triton WR 1339 (2 mL/kg) was intravenously administered to the hamsters 30 minutes after the above administration. Two hours later, blood was collected from orbital venous plexus, and plasma was separated from the blood. The amount of TG in the plasma was determined by automatic analyzer (Hitachi Co.). The data was expressed in terms of TG release velocity (mg/dL/min)=(value at 2nd hour minus value before administration)/120. Inhibition rate (%) was calculated from the data obtained on the basis of the following equation.
Inhibition rate (%)=100×(1 minus TG release velocity of sample/TG release velocity of control group).

In data set [2] the test system is Syrian hamsters. The experiment in a line: Test Example 3: olive oil-loading test (inhibition of fat absorption, plasma TG). The note with it: Mesocricetus auratus, po; 100 mg/kg p.o.; plasma TG 4 hours after olive oil; read-out: Test Example 3 Inhibition of fat absorption after olive oil-loading in Hamster Inhibition rate (%). The format is in vivo.
Data set [3] in a line: Test Example 6: determination of the concentration in plasma (unchanged form and metabolite, orbital venous plexus and portal vein, LC/MS). The format is in vivo. The note with it: hamster, oral, Syrian hamsters; for concentration at 1 h: 1 h after 30 mg/kg p.o.; for concentration at 2 h: 2 h after 30 mg/kg p.o.; for concentration at 4 h: 4 h after 30 mg/kg p.o. As for the experimental part:
Determination of the Concentration in Plasma Syrian hamsters (9-15 weeks of age) under non-fasted conditions were used in the test. A sample was suspended in 0.5% methyl cellulose (vehicle), and the suspension was forced to be administered orally to the hamsters at a dose of 30 or 100 mg/2 mL/kg. After a fixed period of time, blood was partly collected from orbital venous plexus, and the hamsters were subjected to laparotomy under ether anesthesia, and then blood was collected from portal vein. The blood was immediately cooled with ice to separate plasma. A portion of the plasma was extracted with an organic solvent and the supernatant was recovered. Concentration of the sample (unchanged form) and that of the metabolite in the supernatant were determined quantitatively by high performance liquid chromatography/mass spectrometry (LC/MS) comparing with chromatogram of synthetic standard.

In a further data set the test system is Japanese white rabbits. The experiment in a line: Test Example 5: combination use test in cholesterol-loaded rabbit model (plasma cholesterol). The format is in vivo. The note with it: 10 mg/kg in high cholesterol diet, from grouping to the 4th day. The method, then:
Japanese white rabbits (male, 19 weeks of age, JW, purchased from Kitayama Labes Co., Ltd.) were fed previously in such a way that they were fed a high cholesterol diet (0.3% cholesterol+3% peanut oil-added RC-4, Product of Oriental Yeast Co., Ltd.) of 70 g/day under limited feeding for one day. The rabbits thus fed were used as a cholesterol-loaded rabbit model, and the grouping of such model was carried out in such a way that there might be no variation in the amount of plasma cholesterol among each group (five rabbits/group). […] The rabbits were fed 70 g of each diet every morning. Blood was collected from auricular artery 6 hours after the feeding on the 4th day of the administration, and cholesterol level in plasma was assayed. In the table, increased amount of plasma cholesterol during from the time of grouping to the 4th day was shown.

A short description of data set [4]: Test Example 7: metabolic stability test in human liver S9. The format is in vitro ADME. The note with it: human liver S9, 2 mg protein/mL, 37° C. As for the experimental part: (§1) Metabolic Stability Test in Liver S9 and Small Intestine S9
(§2) Human and hamster liver S9 (final concentration: 2 mg protein/mL), and human and hamster small intestine S9 (final concentration: 2 mg protein/mL) were each suspended in 100 mM potassium phosphate buffer (pH 7.4, containing β-nicotinamide adenine dinucleotide phosphate: 1.3 mM, D-glucose-6-phosphate: 3.3 mM, magnesium chloride: 3.3 mM, glucose-6-phosphate dehydrogenase: 0.4 U/mL). The suspensions were mixed with a solution of a sample (Example 2-5) in DMSO. The solutions were incubated at 37° C. for 0, 10 and 60 minutes, and an organic solvent was added thereto. The solutions were centrifuged, and the concentration of the sample (unchanged form) in the supernatant was determined by high performance liquid chromatography/mass spectrometry (LC/MS). Based on the data obtained, remaining rate (%) was calculated according to the following equation.
(§3) Remaining rate(%)=amount of sample 10 or 60 minutes after incubation/amount of sample at zero time after incubation×100

Data set [5] can be described thus: Test Example 7: metabolic stability test in hamster liver S9. The settings on record: hamster liver S9, 2 mg protein/mL, 37° C. The format is in vitro ADME. The method, then:
as §1, §2, §3

The nature of data set [6]: Test Example 7: metabolic stability test in human small intestine S9. The format is in vitro ADME. The note with it: human small intestine S9, 2 mg protein/mL, 37° C. As for the experimental part:
as §1, §2, §3

Data set [7] in a line: Test Example 7: metabolic stability test in hamster small intestine S9. The format is in vitro ADME. The note with it: hamster small intestine S9, 2 mg protein/mL, 37° C. As for the experimental part: as §1, §2, §3
Where [8] appears, read: plasma from peripheral blood (orbital venous plexus), read-out: Concentration in plasma, unaltered form, peripheral blood.
Where [9] appears, read: plasma from portal vein blood, read-out: Concentration in plasma, unaltered form, blood of portal vein.

SMILES strings stand for the structures. Read-outs that look alike come from different tables or passages of the source. Some results are limits rather than exact numbers.

With `CCNC(=O)C(COC(=O)Cc1ccc(NC(=O)c2ccccc2-c2ccc(C(F)(F)F)cc2)cc1)(C(=O)NCC)c1ccccc1` [Example 1, 4-[(4′-Trifluoromethylbiphenyl-2-carbonyl)amino]phenyl-acetic acid 2,2-bisethylcarbamoyl-2-phenylethyl ester], the “Inhibition of liver TG release in Hamster, Inhibition rate(%)” value (“Inhibition … Inhibition rate(%)” below) in the data set on Syrian hamsters [1] (300 mg/kg p.o.) was 19(300) %. In addition, the inhibition in vivo at 100 mg/kg in the data set on Syrian hamsters [2] turned out to be 57%.
Consider `CCOC(=O)C(COC(=O)Cc1ccc(OC(=O)c2ccccc2-c2ccc(C(F)(F)F)cc2)cc1)(C(=O)OCC)c1ccccc1` [Example 1-2, 2-Phenyl-2-{2-[4-(4′-trifluoromethylbiphenyl-2-carbonyloxy)phenyl]acetoxymethyl}malonic acid diethyl ester], for which, in data set [3] (setting [8]), the concentration at 1 h was < 200 nM, the concentration at 2 h is < 200 nM and the concentration at 4 h was < 200 nM. Moreover, in data set [3] (setting [9]), the concentration at 1 h was < 200 nM, the concentration at 2 h is < 200 nM and the concentration at 4 h is < 200 nM.
For the molecule `O=C(Cc1ccc(NC(=O)c2ccccc2-c2ccc(C(F)(F)F)cc2)cc1)OCC1(C(=O)NCC(F)(F)F)c2ccccc2-c2ccccc21` [Example 1-6], in the data set on Syrian hamsters [1] (100 mg/kg p.o.), the “Inhibition … Inhibition rate(%)” value is on record as 0(100) %.
On to `O=C(Cc1ccc(NC(=O)c2ccccc2-c2ccc(C(F)(F)F)cc2)cc1)OCC(C(=O)NCC(F)(F)F)(C(=O)NCC(F)(F)F)c1ccccc1` [Example 1-12], for which, in data set [3] (setting [8]), the concentration at 1 h is < 200 nM, the concentration at 2 h is < 200 nM and the concentration at 4 h is < 200 nM. In data set [3] (setting [9]), the concentration at 1 h was < 200 nM, the concentration at 2 h was < 200 nM and the concentration at 4 h is < 200 nM.
Take `COC(=O)C(COC(=O)Cc1ccc(NC(=O)c2ccccc2-c2ccc(C(F)(F)F)cc2)cc1)(C(=O)OC)c1ccccc1` [Example 1-13]: in data set [3] (setting [8]), the concentration at 1 h is < 200 nM, the concentration at 2 h was < 200 nM and the concentration at 4 h is < 200 nM. Further, in data set [3] (setting [9]), the concentration at 1 h was < 200 nM, the concentration at 2 h was < 200 nM and the concentration at 4 h is < 200 nM.
For `CCCNC(=O)C(COC(=O)Cc1ccc(NC(=O)c2ccccc2-c2ccc(C(F)(F)F)cc2)cc1)(C(=O)NCCC)c1ccccc1` [Example 1-35], the “Inhibition … Inhibition rate(%)” value with Syrian hamsters [1] (300 mg/kg p.o.) is listed as 9(300) %. For the same molecule, the inhibition in vivo at 100 mg/kg in the data set with Syrian hamsters [2] was 59%.
`CCOC(=O)C(COC(=O)Cc1ccc(NC(=O)c2ccccc2-c2ccc(C(F)(F)F)cc2)c(C(=O)N(C)C)c1)(C(=O)OCC)c1ccccc1` [Example 2-5]: the “Inhibition … Inhibition rate(%)” value with Syrian hamsters [1] (100 mg/kg p.o.) is recorded as 0(100) %. In the data set on Japanese white rabbits, the “Increased amount of total cholesterol” value stood at 8.6 mg/dL. Besides, the concentration at 1 h in data set [3] (setting [8]) is < 20 nM; in data set [3] (setting [9]), 10 nM. The concentration at 2 h in data set [3] (setting [8]) is < 20 nM; in data set [3] (setting [9]) it was 30 nM. The concentration at 4 h was < 20 nM in data set [3] (setting [8]) and 10 nM in data set [3] (setting [9]). Further, the “Remaining rate (%) after 10 min.” value is 7.9% in data set [4] (10 min), 2.4% in data set [5] (10 min), 97.6% in data set [6] (10 min) and 29.0% in data set [7] (10 min). Also, the “Remaining rate (%) after 60 min.” value in data set [4] (60 min) is recorded as 4.3%; in data set [5] (60 min), 0%; in data set [6] (60 min) it was 91.5%; in data set [7] (60 min) it was 14.1%.
Consider `CCOC(=O)C(COC(=O)Cc1ccc(NC(=O)c2ccccc2-c2ccc(C(F)(F)F)cc2)c(C(=O)N2CCCC2)c1)(C(=O)OCC)c1ccccc1` [Example 2-22], for which the “Inhibition … Inhibition rate(%)” value in the data set on Syrian hamsters [1] (30 mg/kg p.o.) is 0(30) %.
As for `COC(=O)C(COC(=O)Cc1ccc(NC(=O)c2ccccc2-c2ccc(C(F)(F)F)cc2)c(C(=O)N(C)C)c1)(C(=O)OC)c1ccccc1` [Example 2-39], the “Inhibition … Inhibition rate(%)” value with Syrian hamsters [1] (100 mg/kg p.o.) is 6(100) %.
Regarding `CCNC(=O)C(COC(=O)Cc1ccc(NC(=O)c2ccccc2-c2ccc(C(F)(F)F)cc2)c(OC)c1)(C(=O)NCC)c1ccccc1` [Example 3-3], in the data set on Syrian hamsters [1] (100 mg/kg p.o.), the “Inhibition … Inhibition rate(%)” value was 18(100) %.

Source of the values: patent US7625948B2, “Ester compound and medicinal use thereof” (Japan Tobacco Inc., priority 2002, dated 2009).
